Consider six molecules from ChEMBL document CHEMBL1157106, “cis-Clerodane-type furanoditerpenoids from Tinospora crispa” (J Nat Prod, 2010).

In assay [1] the test system is NIH3T3. Briefly: Cytotoxicity against mouse 3T3 cells after 72 hrs by MTT assay. The assay is classed as cell-based. The following applies: NIH3T3, 72 h.
In assay [2] the test system is PC-3. As to the kind of experiment: cells. The following applies: Homo sapiens, PC-3, 72 h.
Description: Cytotoxicity against human PC3 cells after 72 hrs by MTT assay

As to `COC(=O)C1=CCC[C@H]2[C@](C)(C[C@@H](O[C@@H]3O[C@H](CO[C@@H]4O[C@H](CO)[C@@H](O)[C@H](O)[C@H]4O)[C@@H](O)[C@H](O)[C@H]3O)c3ccoc3)[C@H]3C[C@H](OC3=O)[C@@]12C` [BORAPETOSIDE D], the half-maximal inhibitory concentration (IC50) in assay [1] and in assay [2] was over 10 µM throughout.

Consider `COC(=O)C1=C[C@H](O)C[C@H]2[C@]3(C)C[C@@H](c4ccoc4)OC(=O)[C@H]3C[C@H](O[C@@H]3O[C@H](CO)[C@@H](O)[C@H](O)[C@H]3O)[C@@]12C` [BORAPETOSIDE B], for which the IC50 in assay [1] and in assay [2] was over 10 µM in each case. Take `C[C@@]12C[C@@H](c3ccoc3)OC(=O)[C@@H]1C[C@@H]1OC(=O)[C@@]3(O)[C@@H](O[C@@H]4O[C@H](CO)[C@@H](O)[C@H](O)[C@H]4O)CC[C@@H]2[C@@]13C` [BORAPETOSIDE A]: the IC50 in assay [1] and in assay [2] was over 10 µM throughout. The molecule `COc1cccc2c1C(=O)c1c(O)c3c(c(O)c1C2=O)C[C@@](O)(C(=O)CO)C[C@@H]3O[C@H]1C[C@H](N)[C@H](O)[C@H](C)O1` [DOXORUBICIN] registered an IC50 in assay [2] of 0.912 µM. `C[C@@H]1C[C@@H]([C@H](O)CC2CC(=O)NC(=O)C2)C(=O)[C@@H](C)C1` [CYCLOHEXIMIDE]: in assay [1], the IC50 was found to be 0.26 µM. Consider `COC(=O)C1=CCC[C@H]2[C@]3(C)C[C@@H](c4ccoc4)OC(=O)[C@@H]3C[C@@H](O[C@@H]3O[C@H](CO)[C@@H](O)[C@H](O)[C@H]3O)[C@@]12C` [BORAPETOSIDE C], for which the IC50 in assay [1] and in assay [2] was over 10 µM throughout.
